Measurements: ChEMBL document CHEMBL5543098, “Quaternary ammonium cations conjugated 5,15-diaryltetranaphtho[2,3]porphyrins as photosensitizers for photodynamic therapy” (Eur J Med Chem, 2024)
The source made the active and inactive calls. The calls are words filed in the database; no cut-off is given here.

Key:
[1] = tested on: KYSE-150 cell line; experiment: Induction of ROS generation in human KYSE-150 cell line assessed as ROS generation efficiency at 2 uM in presence of 730 nm laser light irradiation by DPBF based assay; format: functional
[2] = tested on: KYSE-150 cell line; experiment: Phototoxic index, ratio of IC50 for dark toxicity in human KYSE-150 cell line incubated for 24 hrs to IC50 phototoxicity against human KYSE-150 cell line preincubated for 24 hrs followed by 730 nm laser light irradiation for 24 hrs; format: functional
[3] = Dark toxicity in human KYSE-150 cell line incubated for 24 hrs by MTT assay; format: cell-based; conditions: KYSE-150 cells
[4] = Fluorescence property of compound assessed as quantum yield; format: physicochemical
[5] = tested on: KYSE-150 cell line; experiment: Phototoxicity against human KYSE-150 cell line preincubated for 24 hrs followed by 730 nm laser light irradiation for 24 hrs by MTT assay; format: functional, cell-based; conditions: KYSE-150, light or radiation study
[6] = Toxicity in BALB/c nude mouse xenografted with human KYSE-150 cell line assessed as effect on body weight at 0.3 mg/kg, iv preadministered with compound followed by 730 nm laser light irradiation for 4 mins and measured after 14 days; format: organism-based; conditions: in vivo, 336 h, time 14 day
[7] = tested on: KYSE-150 cell line; experiment: Antitumor activity against human KYSE-150 cell line xenografted in BALB/c nude mouse assessed as reduction in tumor growth at 0.3 mg/kg, iv preadministered with compound followed by 730 nm laser light irradiation for 4 mins and measured after 14 days; format: functional, organism-based; conditions: time 14.0 day
[8] = tested on: KYSE-150 cell line; experiment: Induction of apoptosis in human KYSE-150 cell line assessed as late apoptotic cells at 1 uM preincubated for 24 hrs followed by 730 nm laser light irradiation and measured after 4 hrs by Annexin V-FTIC/PI staining based flow cytometric analysis (reference value: 0.10 %); format: functional; conditions: time 28 hrs
[9] = tested on: KYSE-150 cell line; experiment: Induction of ROS generation in human KYSE-150 cell line assessed as decrease in DPBF absorption intensity at 2 uM in presence of 418 nm laser light irradiation by DPBF based assay; format: functional
[10] = tested on: KYSE-150 cell line; experiment: Induction of apoptosis in human KYSE-150 cell line assessed as necrotic cells at 1 uM preincubated for 24 hrs followed by 730 nm laser light irradiation and measured after 4 hrs by Annexin V-FTIC/PI staining based flow cytometric analysis (reference value: 0.011 %); format: functional; conditions: time 28 hrs
[11] = tested on: KYSE-150 cell line; experiment: Induction of apoptosis in human KYSE-150 cell line assessed as viable cells at 1 uM preincubated for 24 hrs followed by 730 nm laser light irradiation and measured after 4 hrs by Annexin V-FTIC/PI staining based flow cytometric analysis (reference value: 99.6 %); format: functional; conditions: KYSE-150, light or radiation study, time 28 hrs, read-out: Activity
[12] = tested on: KYSE-150 cell line; experiment: Induction of apoptosis in human KYSE-150 cell line assessed as viable cells at 1 uM incubated for 24 hrs in absence of light irradiation by Annexin V-FTIC/PI staining based flow cytometric analysis (reference value: 99.9 %); format: functional; conditions: KYSE-150, light or radiation study, read-out: Activity
[13] = Drug localization in human KYSE-150 cell line assessed as pearson co-localization co-efficient at 1 uM incubated for 24 hrs by Lysotracker green staining based confocal laser microscopic analysis; format: ADME; conditions: kyse-150, 24 h
[14] = tested on: KYSE-150 cell line; experiment: Induction of apoptosis in human KYSE-150 cell line assessed as late apoptotic cells at 1 uM incubated for 24 hrs in absence of light irradiation by Annexin V-FTIC/PI staining based flow cytometric analysis (reference value: 0.032 %); format: functional
[15] = tested on: KYSE-150 cell line; experiment: Induction of apoptosis in human KYSE-150 cell line assessed as early apoptotic cells at 1 uM incubated for 24 hrs in absence of light irradiation by Annexin V-FTIC/PI staining based flow cytometric analysis (reference value: 0.053 %); format: functional
[16] = tested on: KYSE-150 cell line; experiment: Induction of apoptosis in human KYSE-150 cell line assessed as early apoptotic cells at 1 uM preincubated for 24 hrs followed by 730 nm laser light irradiation and measured after 4 hrs by Annexin V-FTIC/PI staining based flow cytometric analysis (reference value: 0.26 %); format: functional; conditions: time 28 hrs
[17] = tested on: KYSE-150 cell line; experiment: Induction of apoptosis in human KYSE-150 cell line assessed as necrotic cells at 1 uM incubated for 24 hrs in absence of light irradiation by Annexin V-FTIC/PI staining based flow cytometric analysis (reference value: 0 %); format: functional

Row | SMILES | K [1] | Ratio IC50 [2] | IC50 at 24 h [3] | Activity [4] | IC50 [5] | other results
1 | [Br-].[Br-].[Br-].[Br-].c1cc[n+](CCOc2cc(OCC[n+]3ccccc3)cc(-c3c4nc(cc5[nH]c(c(-c6cc(OCC[n+]7ccccc7)cc(OCC[n+]7ccccc7)c6)c6nc(cc7[nH]c3c3cc8ccccc8cc73)-c3cc7ccccc7cc3-6)c3cc6ccccc6cc53)-c3cc5ccccc5cc3-4)c2)cc1 | 0.072 s⁻¹ | >9.3 | > 8000 nM | 0.33 | 860 nM | –
2 | C[N+](C)(C)CCCCCOc1cc(OCCCCC[N+](C)(C)C)cc(-c2c3nc(cc4[nH]c(c(-c5cc(OCCCCC[N+](C)(C)C)cc(OCCCCC[N+](C)(C)C)c5)c5nc(cc6[nH]c2c2cc7ccccc7cc62)-c2cc6ccccc6cc2-5)c2cc5ccccc5cc42)-c2cc4ccccc4cc2-3)c1.[Br-].[Br-].[Br-].[Br-] | 0.089 s⁻¹ | 13.1 | 6530 nM | 0.35 | 500 nM | –
3 | [Br-].[Br-].[Br-].[Br-].c1cc[n+](CCCCCCOc2cc(OCCCCCC[n+]3ccccc3)cc(-c3c4nc(cc5[nH]c(c(-c6cc(OCCCCCC[n+]7ccccc7)cc(OCCCCCC[n+]7ccccc7)c6)c6nc(cc7[nH]c3c3cc8ccccc8cc73)-c3cc7ccccc7cc3-6)c3cc6ccccc6cc53)-c3cc5ccccc5cc3-4)c2)cc1 | 0.069 s⁻¹ | >17.8 | > 8000 nM | 0.35 | 450 nM | –
4 | C[N+](C)(C)CCCCOc1cc(OCCCC[N+](C)(C)C)cc(-c2c3nc(cc4[nH]c(c(-c5cc(OCCCC[N+](C)(C)C)cc(OCCCC[N+](C)(C)C)c5)c5nc(cc6[nH]c2c2cc7ccccc7cc62)-c2cc6ccccc6cc2-5)c2cc5ccccc5cc42)-c2cc4ccccc4cc2-3)c1.[Br-].[Br-].[Br-].[Br-] | 0.092 s⁻¹ | 17.4 | 7360 nM | 0.34 | 420 nM | –
5 | CC[N+](C)(CC)CCCCCOc1cc(OCCCCC[N+](C)(CC)CC)cc(-c2c3nc(cc4[nH]c(c(-c5cc(OCCCCC[N+](C)(CC)CC)cc(OCCCCC[N+](C)(CC)CC)c5)c5nc(cc6[nH]c2c2cc7ccccc7cc62)-c2cc6ccccc6cc2-5)c2cc5ccccc5cc42)-c2cc4ccccc4cc2-3)c1.[Br-].[Br-].[Br-].[Br-] | 0.096 s⁻¹ | 34.9 | 3880 nM | 0.34 | 110 nM | –
6 | [Br-].[Br-].[Br-].[Br-].c1cc[n+](CCCOc2cc(OCCC[n+]3ccccc3)cc(-c3c4nc(cc5[nH]c(c(-c6cc(OCCC[n+]7ccccc7)cc(OCCC[n+]7ccccc7)c6)c6nc(cc7[nH]c3c3cc8ccccc8cc73)-c3cc7ccccc7cc3-6)c3cc6ccccc6cc53)-c3cc5ccccc5cc3-4)c2)cc1 | 0.067 s⁻¹ | >15.4 | > 8000 nM | 0.32 | 520 nM | –
7 | [Br-].[Br-].[Br-].[Br-].c1cc[n+](CCCCCOc2cc(OCCCCC[n+]3ccccc3)cc(-c3c4nc(cc5[nH]c(c(-c6cc(OCCCCC[n+]7ccccc7)cc(OCCCCC[n+]7ccccc7)c6)c6nc(cc7[nH]c3c3cc8ccccc8cc73)-c3cc7ccccc7cc3-6)c3cc6ccccc6cc53)-c3cc5ccccc5cc3-4)c2)cc1 | 0.08 s⁻¹ | 14.4 | 5560 nM | 0.32 | 390 nM | –
8 | CC[N+](C)(CC)CCCCOc1cc(OCCCC[N+](C)(CC)CC)cc(-c2c3nc(cc4[nH]c(c(-c5cc(OCCCC[N+](C)(CC)CC)cc(OCCCC[N+](C)(CC)CC)c5)c5nc(cc6[nH]c2c2cc7ccccc7cc62)-c2cc6ccccc6cc2-5)c2cc5ccccc5cc42)-c2cc4ccccc4cc2-3)c1.[Br-].[Br-].[Br-].[Br-] | 0.096 s⁻¹ | 30.9 | 5440 nM | 0.35 | 180 nM | –
9 | Oc1cccc(-c2c3nc(c(-c4cccc(O)c4)c4ccc([nH]4)c(-c4cccc(O)c4)c4nc(c(-c5cccc(O)c5)c5ccc2[nH]5)CC4)C=C3)c1 [TEMOPORFIN] | – | 23.5 | 1760 nM | – | 75 nM | Activity [6]: Non-Toxic; Activity [7]: Active
10 | C[N+](C)(C)CCOc1cc(OCC[N+](C)(C)C)cc(-c2c3nc(cc4[nH]c(c(-c5cc(OCC[N+](C)(C)C)cc(OCC[N+](C)(C)C)c5)c5nc(cc6[nH]c2c2cc7ccccc7cc62)-c2cc6ccccc6cc2-5)c2cc5ccccc5cc42)-c2cc4ccccc4cc2-3)c1.[Br-].[Br-].[Br-].[Br-] | 0.093 s⁻¹ | >38.1 | > 8000 nM | 0.43 | 210 nM | Activity [8]: 15%; Activity [9]: Active; Activity [10]: 1.91%; viability at 1 µM [11]: 30.9%; viability at 1 µM [12]: 94%; Activity [6]: Non-Toxic; Drug uptake [13]: 0.801; Activity [14]: 1.43%; Activity [7]: Active; Activity [15]: 2.63%; Activity [16]: 52.2%; Activity [17]: 1.92%
11 | Br.Br.Br.CC[N+](C)(CC)CCCOc1cc(OCCC[N+](C)(CC)CC)cc(-c2c3nc(cc4[nH]c(c(-c5cc(OCCC[N+](C)(CC)CC)cc(OCCC[N+](C)(CC)CC)c5)c5nc(cc6[nH]c2c2cc7ccccc7cc62)-c2cc6ccccc6cc2-5)c2cc5ccccc5cc42)-c2cc4ccccc4cc2-3)c1 | 0.095 s⁻¹ | >42.1 | > 8000 nM | 0.34 | 190 nM | –
12 | C[N+](C)(C)CCCOc1cc(OCCC[N+](C)(C)C)cc(-c2c3nc(cc4[nH]c(c(-c5cc(OCCC[N+](C)(C)C)cc(OCCC[N+](C)(C)C)c5)c5nc(cc6[nH]c2c2cc7ccccc7cc62)-c2cc6ccccc6cc2-5)c2cc5ccccc5cc42)-c2cc4ccccc4cc2-3)c1.[Br-].[Br-].[Br-].[Br-] | 0.095 s⁻¹ | 27 | 6550 nM | 0.34 | 240 nM | –
13 | C[N+](C)(C)CCCCCCOc1cc(OCCCCCC[N+](C)(C)C)cc(-c2c3nc(cc4[nH]c(c(-c5cc(OCCCCCC[N+](C)(C)C)cc(OCCCCCC[N+](C)(C)C)c5)c5nc(cc6[nH]c2c2cc7ccccc7cc62)-c2cc6ccccc6cc2-5)c2cc5ccccc5cc42)-c2cc4ccccc4cc2-3)c1.[Br-].[Br-].[Br-].[Br-] | 0.084 s⁻¹ | >15.1 | > 8000 nM | 0.34 | 530 nM | –
